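GI50: concentration for 50% inhibition of growth. TGI: total growth inhibition.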
How the values were obtained:
Assay in all cases: inhibition of tumour cell growth, NCI panel, 384-well format
COLO 205 colon = test system: COLO 205 colon
HT29 colon = test system: HT29 colon
SK-OV-3 ovarian = test system: SK-OV-3 ovarian
NCI/ADR-RES ovarian = test system: NCI/ADR-RES ovarian
IGROV1 ovarian = test system: IGROV1 ovarian
SK-MEL-28 melanoma = test system: SK-MEL-28 melanoma
HCT-116 colon = test system: HCT-116 colon
SW-620 colon = test system: SW-620 colon
NCI-H522 lung = test system: NCI-H522 lung
KM12 colon = test system: KM12 colon
SNB-75 CNS = test system: SNB-75 CNS
ACHN renal = test system: ACHN renal
SF-268 CNS = test system: SF-268 CNS
OVCAR-3 ovarian = test system: OVCAR-3 ovarian
TK-10 renal = test system: TK-10 renal
HOP-62 NSCLC = test system: HOP-62 NSCLC
BT-549 breast = test system: BT-549 breast
NCI-H460 NSCLC = test system: NCI-H460 NSCLC
SN12C renal = test system: SN12C renal
SK-MEL-2 melanoma = test system: SK-MEL-2 melanoma
NCI-H322M lung = test system: NCI-H322M lung
HCC-2998 colon = test system: HCC-2998 colon
A549 NSCLC = test system: A549 NSCLC
U251 glioblastoma = test system: U251 glioblastoma
786-0 renal = test system: 786-0 renal
RXF 393 renal = test system: RXF 393 renal
SF-295 CNS = test system: SF-295 CNS
OVCAR-8 ovarian = test system: OVCAR-8 ovarian
UACC-257 melanoma = test system: UACC-257 melanoma
MCF7 breast = test system: MCF7 breast
HCT-15 colon = test system: HCT-15 colon
RPMI-8226 leukemia = test system: RPMI-8226 leukemia
PC-3 prostate = test system: PC-3 prostate
CCRF-CEM leukemia = test system: CCRF-CEM leukemia
K-562 leukemia = test system: K-562 leukemia
EKVX NSCLC = test system: EKVX NSCLC
NCI-H226 lung = test system: NCI-H226 lung
OVCAR-4 ovarian = test system: OVCAR-4 ovarian
NCI-H23 lung = test system: NCI-H23 lung
MDA-MB-468 breast = test system: MDA-MB-468 breast
MDA-MB-435 melanoma = test system: MDA-MB-435 melanoma
HOP-92 NSCLC = test system: HOP-92 NSCLC
HS 578T breast = test system: HS 578T breast
MALME-3M melanoma = test system: MALME-3M melanoma
SNB-19 CNS = test system: SNB-19 CNS
DU-145 prostate = test system: DU-145 prostate
HL-60(TB) leukemia = test system: HL-60(TB) leukemia
M14 melanoma = test system: M14 melanoma
SF-539 CNS = test system: SF-539 CNS
MOLT-4 leukemia = test system: MOLT-4 leukemia
CAKI-1 renal = test system: CAKI-1 renal
SK-MEL-5 melanoma = test system: SK-MEL-5 melanoma
LOX IMVI melanoma = test system: LOX IMVI melanoma
UACC-62 melanoma = test system: UACC-62 melanoma
A498 renal = test system: A498 renal

Structure (SMILES): CC/C(=C(\c1ccccc1)c1ccc(OCCNC)cc1)c1ccccc1
- GI50 (COLO 205 colon): 1940 nM
- TGI (COLO 205 colon): 3400 nM
- GI50 (HT29 colon): 1770 nM
- TGI (HT29 colon): 3190 nM
- GI50 (SK-OV-3 ovarian): 1870 nM
- TGI (SK-OV-3 ovarian): 3300 nM
- GI50 (NCI/ADR-RES ovarian): 2200 nM
- TGI (NCI/ADR-RES ovarian): 3910 nM
- GI50 (IGROV1 ovarian): 1860 nM
- TGI (IGROV1 ovarian): 3350 nM
- GI50 (SK-MEL-28 melanoma): 2070 nM
- TGI (SK-MEL-28 melanoma): 3520 nM
- GI50 (HCT-116 colon): 1970 nM
- TGI (HCT-116 colon): 3450 nM
- GI50 (SW-620 colon): 1980 nM
- TGI (SW-620 colon): 3460 nM
- GI50 (NCI-H522 lung): 1930 nM
- TGI (NCI-H522 lung): 3360 nM
- GI50 (KM12 colon): 1990 nM
- TGI (KM12 colon): 3470 nM
- GI50 (SNB-75 CNS): 2060 nM
- TGI (SNB-75 CNS): 3550 nM
- GI50 (ACHN renal): 1850 nM
- TGI (ACHN renal): 3300 nM
- GI50 (SF-268 CNS): 2360 nM
- TGI (SF-268 CNS): 3930 nM
- GI50 (OVCAR-3 ovarian): 1920 nM
- TGI (OVCAR-3 ovarian): 3400 nM
- GI50 (TK-10 renal): 2120 nM
- TGI (TK-10 renal): 4070 nM
- GI50 (HOP-62 NSCLC): 2350 nM
- TGI (HOP-62 NSCLC): 3830 nM
- GI50 (BT-549 breast): 1820 nM
- TGI (BT-549 breast): 3260 nM
- GI50 (NCI-H460 NSCLC): 1980 nM
- TGI (NCI-H460 NSCLC): 3510 nM
- GI50 (SN12C renal): 1850 nM
- TGI (SN12C renal): 3420 nM
- GI50 (SK-MEL-2 melanoma): 1860 nM
- TGI (SK-MEL-2 melanoma): 3280 nM
- GI50 (NCI-H322M lung): 2160 nM
- TGI (NCI-H322M lung): 3700 nM
- GI50 (HCC-2998 colon): 1660 nM
- TGI (HCC-2998 colon): 3040 nM
- GI50 (A549 NSCLC): 1710 nM
- TGI (A549 NSCLC): 3160 nM
- GI50 (U251 glioblastoma): 2160 nM
- TGI (U251 glioblastoma): 3640 nM
- GI50 ([…]-0 renal): 1790 nM
- TGI (786-0 renal): 3200 nM
- GI50 (RXF 393 renal): 2020 nM
- TGI (RXF 393 renal): 3470 nM
- GI50 (SF-295 CNS): 1880 nM
- TGI (SF-295 CNS): 3300 nM
- GI50 (OVCAR-8 ovarian): 1860 nM
- TGI (OVCAR-8 ovarian): 3320 nM
- GI50 (UACC-257 melanoma): 2300 nM
- TGI (UACC-257 melanoma): 3770 nM
- GI50 (MCF7 breast): 1200 nM
- TGI (MCF7 breast): 2610 nM
- GI50 (HCT-15 colon): 1820 nM
- TGI (HCT-15 colon): 3270 nM
- GI50 (RPMI-8226 leukemia): 2290 nM
- TGI (RPMI-8226 leukemia): 3760 nM
- GI50 (PC-3 prostate): 1970 nM
- TGI (PC-3 prostate): 3480 nM
- GI50 (CCRF-CEM leukemia): 1730 nM
- TGI (CCRF-CEM leukemia): 3130 nM
- GI50 (K-562 leukemia): 1830 nM
- TGI (K-562 leukemia): 3250 nM
- GI50 (EKVX NSCLC): 1920 nM
- TGI (EKVX NSCLC): 3670 nM
- GI50 (NCI-H226 lung): 2150 nM
- TGI (NCI-H226 lung): 4650 nM
- GI50 (OVCAR-4 ovarian): 2100 nM
- TGI (OVCAR-4 ovarian): 3680 nM
- GI50 (NCI-H23 lung): 2130 nM
- TGI (NCI-H23 lung): 3670 nM
- GI50 (MDA-MB-468 breast): 2390 nM
- TGI (MDA-MB-468 breast): 3870 nM
- GI50 (MDA-MB-435 melanoma): 2060 nM
- TGI (MDA-MB-435 melanoma): 3500 nM
- GI50 (HOP-92 NSCLC): 2050 nM
- TGI (HOP-92 NSCLC): 3510 nM
- GI50 (HS 578T breast): 1900 nM
- TGI (HS 578T breast): 3320 nM
- GI50 (MALME-3M melanoma): 2150 nM
- TGI (MALME-3M melanoma): 3610 nM
- GI50 (SNB-19 CNS): 2140 nM
- TGI (SNB-19 CNS): 3640 nM
- GI50 (DU-145 prostate): 2260 nM
- TGI (DU-145 prostate): 4240 nM
- GI50 (HL-60(TB) leukemia): 1580 nM
- TGI (HL-60(TB) leukemia): 2940 nM
- GI50 (M14 melanoma): 2070 nM
- TGI (M14 melanoma): 3520 nM
- GI50 (SF-539 CNS): 2100 nM
- TGI (SF-539 CNS): 3560 nM
- GI50 (MOLT-4 leukemia): 1490 nM
- TGI (MOLT-4 leukemia): 2820 nM
- GI50 (CAKI-1 renal): 1530 nM
- TGI (CAKI-1 renal): 2920 nM
- GI50 (SK-MEL-5 melanoma): 1690 nM
- TGI (SK-MEL-5 melanoma): 3080 nM
- GI50 (LOX IMVI melanoma): 1790 nM
- TGI (LOX IMVI melanoma): 3210 nM
- GI50 (UACC-62 melanoma): 2160 nM
- TGI (UACC-62 melanoma): 3630 nM
- GI50 (A498 renal): 1720 nM
- TGI (A498 renal): 3100 nM

From PubChem BioAssay (NCI)
